One assay has as its target integrin αvβ5 (Homo sapiens, UniProt P06756+P18084). Kind of assay: Integrin αvβ5 binding affinity test (biotinylated vitronectin competition on immobilized integrin). Particulars: inhibition of biotinylated vitronectin binding. As for the experimental part: Test Example 2 Integrin […] Binding Affinity Test
(§1) 0.2 μg/mL of δvβ5 was immobilized in a 96-well plates (Corning Incorporated) and then blocked using a 1% Block Ace (DS Pharma Biomedical Co., Ltd.) solution, and then the plate was washed with PBST (10 mM Na2HPO4 pH 7.5, 150 mM NaCl, 0.01% Tween 20). A 2× concentrated evaluation compound solution (10× concentration of 3.16× dilution from 0.3 mol/L, buffer (20 mM Tris-HCl pH 7.5, 150 mM NaCl, 1 mM CaCl2), 1 mM MgCl2, 1 mM MnCl2)) and a 4 μg/mL biotinylated vitronectin solution (labeling vitronectin (Upstate Biotechnology Inc.) by using EZ-Link Sulfo-NHS-Biotinylation Kit (Pierce Protein Biology) and then adjusting concentration) were each added to the plate in an amount of 50 μL, and the plate was shaken for 2 hours at room temperature. The plate was washed with PBST, a 0.2 g/mL avidin-peroxidase (Pierce Protein Biology) was added thereto, and the plate was shaken for 1 hour at room temperature. The plate was washed with PBST, an o-phenylenediamine (Sigma-Aldrich Co., LLC.) solution was added thereto such that color was produced (stopped using 4 mol/L sulfuric acid), and the absorbance (490 nm, Reference: 595 nm) was measured. The IC50 value was calculated using XLfit 3.0 (ID Business Solutions Ltd.). For each plate, as a QC sample, RGDfV (Bachem AG) was measured in duplicate. […]

The target in a further assay is integrin αvβ3 (Homo sapiens, UniProt P05106+P06756). Kind of assay: Integrin αvβ3 binding affinity test (biotinylated vitronectin competition on immobilized integrin). Particulars: inhibition of biotinylated vitronectin binding. The method, then:
Test Example 1 Integrin […] Binding Affinity Test
as §1, with “[…]” for “δvβ5”, “T-PBS (PBS containing 0.05%” for “PBST (10 mM Na2HPO4 pH 7.5, 150 mM NaCl, 0.01%”, “μmol/L,” for “mol/L,”, “T-PBS,” for “PBST,”, “μg/mL avidin·peroxidase” for “g/mL avidin-peroxidase”

Each structure is given as a SMILES string.

Broadly, the IC50 is the concentration needed to halve the response being measured. A lower IC50 goes with inhibition by little substance.

Consider `Cc1cc(OCCCC(=O)NCCNC(=O)[C@H](CS(=O)(=O)O)NC(=O)CN2CCN(CC(=O)O)CCN(CC(=O)O)CCN(CC(=O)O)CC2)cc(C)c1S(=O)(=O)N[C@@H](CNC(=O)CCCCc1ccc2c(n1)NCCC2)C(=O)O` [Compound A, 2,2′,2″-(10-(2-(((R)-1-((2-(4-(4-(N—((S)-1-carboxy-2-(5-(5,6,7,8-tetrahydro-1,8-naphthyridin-2-yl)pentanamide)ethyl)sulfamoyl)-3,5-dimethylphenoxy)butanamide)ethyl)amino)-1-oxo-3-sulfopropan-2-yl)amino)-2-oxoethyl)-1,4,7,10-tetraazacyclododecane-1,4,7-triyl)triacetic acid], for which the IC50 on integrin αvβ5 and on integrin αvβ3 was less than 1 nM each time.
For the molecule `Cc1cc(OCCCC(=O)NCCNC(=O)[C@H](CS(=O)(=O)O)NC(=O)CC[C@H](C(=O)O)N2CCN(CC(=O)O)CCN(CC(=O)O)CC2)cc(C)c1S(=O)(=O)N[C@@H](CNC(=O)CCCCc1ccc2c(n1)NCCC2)C(=O)O` [Compound B, 2,2′-(7-((R)-1-carboxy-4-(((R)-1-((2-(4-(4-(N—((S)-1-carboxy-2-(5-(5,6,7,8-tetrahydro-1,8-naphthyridin-2-yl)pentanamide)ethyl)sulfamoyl)-3,5-dimethylphenoxy)butanamide)ethyl)amino)-1-oxo-3-sulfopropan-2-yl)amino)-4-oxobutyl)-1,4,7-triazonane-1,4-diyl)diacetic acid], the IC50 on integrin αvβ5 and at integrin αvβ3 was less than 1 nM in each case.

The values above are taken from patent US20240108607A1, “METHOD FOR MANUFACTURING NOVEL NITROGEN-CONTAINING COMPOUND OR SALT THEREOF AND MANUFACTURING INTERMEDIATE OF NOVEL NITROGEN-CONTAINING COMPOUND OR SALT THEREOF” (FUJIFILM Corporation, priority 2015, published 2024).
